In brackets after ≈: the same amount, converted by molar mass.
Tests used:
[1] = tested on: S. aureus ATCC 29213; assay: MIC, spectrum of activity; format: cell-based; conditions: Staphylococcus aureus, ATCC29213
[2] = tested on: M. tuberculosis H37Rv mc^2 6206; assay: microbe, parasite or virus in culture; format: cell-based; conditions: Mycobacterium tuberculosis, 168 h
[3] = tested on: Other NTM (n = 12); assay: MIC against rapid-growing NTM clinical isolates; format: cell-based
[4] = tested on: M. fortuitum (n = 11) clinical isolates; assay: MIC against rapid-growing NTM clinical isolates; format: cell-based
[5] = physchem; format: physicochemical; conditions: pH 7.4, aqueous buffer, thermodynamic from solid
Description: ADMET assays were performed through NIAID Preclinical Services and Eurofins. Potential for cytotoxicity was monitored in HepG2 cells after 72 h growth in the presence of test compounds, either prepared as 10-point 3-fold serial dilutions or at a fixed 10 μM concentration. Cell viability was measured using the CellTiter-Glo® Luminescent Cell Viability Assay (Promega) or via fluorescent image analysis. Cytotoxicity was expressed as IC50 or as percent reduction of viable cells relative to a reference compound. Metabolic stability of compounds was evaluated via incubation with human liver microsomes at 37°C and quantitative analysis of parent compound by LC-MS/MS in samples removed at 0, 5, 15, 30, and 45 min (Obach, [1999]). For cytochrome P450 (CYP) inhibition assays, compounds were prepared as a 7-point dilution series and incubated with human liver microsomes in buffer containing 2 mM NADPH and probe substrate. […] Thermodynamic solubility of compounds in aqueous media was determined by incubation in 50 mM potassium phosphate buffer (pH 7.4) for 24 h, followed by HPLC-UV detection of compound in the filtrate (Analiza, Cleveland, OH, United States).

[6] = tested on: M. fortuitum 41; assay: MIC, broth microdilution with resazurin (MHB, 3 days); format: cell-based; conditions: Mycolicibacterium fortuitum, 41
[7] = tested on: M. avium 101; assay: MIC, Middlebrook medium (7H9 + OADC, 7 days); format: cell-based; conditions: Mycobacterium avium, 101, 168 h
[8] = 50% complement-inactivated human serum
[9] = tested on: M. abscessus ATCC 19977; assay: MIC, broth microdilution with resazurin (MHB, 3 days); format: cell-based; conditions: Mycobacteroides abscessus, ATCC19977
[10] = tested on: S. pyogenes ATCC 19615; assay: MIC, spectrum of activity; format: cell-based; conditions: Streptococcus pyogenes, ATCC19615
[11] = tested on: M. abscessus; set-up: method as in Graham et al., 2018; conditions: SAR of CRS400153 analogs; ref Graham et al., 2018; cited from earlier work
[12] = tested on: M. chelonae (n = 11) clinical isolates; assay: MIC against rapid-growing NTM clinical isolates; format: cell-based
[13] = tested on: M. intracellulare 1956; assay: MIC, Middlebrook medium (7H9 + OADC, 7 days); format: cell-based; conditions: Mycobacterium intracellulare, 1956, 168 h
[14] = tested on: E. coli ATCC 25922 + PMBN (permeabilized); assay: MIC, spectrum of activity; format: cell-based; conditions: Escherichia coli, ATCC25922
[15] = tested on: Mtb intact cells and inverted membrane vesicles; format: cell-based, M. tuberculosis
[16] = tested on: S. pneumoniae ATCC 49619; assay: MIC, spectrum of activity; format: cell-based; conditions: Streptococcus pneumoniae, ATCC49619
[17] = tested on: M. abscessus massiliense 119; assay: MIC, broth microdilution with resazurin (MHB, 3 days); format: cell-based; conditions: Mycobacteroides abscessus
[18] = tested on: mycolic acid transfer in Mabs ATCC19977; assay: Metabolic labeling with [14C]acetate; format: cell-based, M. abscessus; conditions: 2x and 10x MIC
[19] = tested on: M. peregrinum ATCC 700686; assay: MIC, broth microdilution with resazurin (MHB, 3 days); format: cell-based; conditions: Mycolicibacterium peregrinum, ATCC700686
[20] = tested on: M. chelonae 93; assay: as above; format: cell-based; conditions: Mycobacteroides chelonae, 93
[21] = tested on: M. abscessus (n = 20) clinical isolates; assay: MIC against rapid-growing NTM clinical isolates; format: cell-based
[22] = tested on: E. coli tolC CGSC 5633 (efflux mutant strain); assay: microbe, parasite or virus in culture; format: cell-based; conditions: Escherichia coli
[23] = tested on: P. aeruginosa ATCC 35151; assay: MIC, spectrum of activity; format: cell-based; conditions: Pseudomonas aeruginosa, ATCC35151
[24] = tested on: E. faecalis ATCC 29212; assay: MIC, spectrum of activity; format: cell-based; conditions: Enterococcus faecalis, ATCC29212

With CC1CC(C(=O)Nc2nc3c(F)cc(F)cc3s2)CC(C)(C)C1 (stereo not shown) [CRS400153] as the compound, how does the MIC [1] read?
Its MIC is greater than 64 µg/mL.

And the MIC [2]?
Its MIC is 1 µg/mL (≈ 2.95 µM).

And the MIC90 [3]?
Its MIC90 is 1 µg/mL (≈ 2.95 µM).

What about the MIC range ([3]; Other NTM (n = 12)) of the same compound?
Its MIC range is 0.25 to 1 µg/mL.

And the MIC range ([4]; M. fortuitum (n = 11))?
Its MIC range is 0.5–0.5 μg/mL.

What about the MIC90 ([4]; Mycolicibacterium fortuitum) of the same compound?
Its MIC90 is 0.5 µg/mL (≈ 1.48 µM).

What about the solubility at 24 h [5] of the same compound?
The solubility at 24 h was 3 µM (≈ 1.02 µg/mL).

What about the MIC [6] of the same compound?
The MIC was 0.25 µg/mL (≈ 0.739 µM).

And the MIC [7]?
The MIC was 16 µg/mL.

And the “Protein (serum) binding” value [8]?
Its value is greater than 95%.

What about the MIC [9] of the same compound?
The MIC was 0.5 µg/mL (≈ 1.48 µM).

What about the MIC [10] of the same compound?
Its MIC is greater than 64 µg/mL.

And the “MIC against M. abscessus” value [11]?
The value was 0.5 µg/mL (≈ 1.48 µM).

What about the MIC range ([12]; M. chelonae (n = 11)) of the same compound?
The MIC range was 0.5 to 1 µg/mL.

And the MIC90 ([12]; Mycobacteroides chelonae)?
The MIC90 was 1 µg/mL (≈ 2.95 µM).

What about the MIC [13] of the same compound?
Its MIC is 8 µg/mL.

And the MIC [14]?
The MIC was greater than 64 µg/mL.

What about the “effect on membrane potential and electrochemical pH gradient” value [15] of the same compound?
Its value is “no effect”.

And the MIC [16]?
Its MIC is 8 µg/mL (≈ 23.6 µM).

What about the MIC [17] of the same compound?
Its MIC is 0.5 µg/mL (≈ 1.48 µM).

What about the “effect on mycolic acid transfer to arabinogalactan and trehalose dimycolates” value [18] of the same compound?
The value was “concentration-dependent inhibition of mycolic acid transfer”.

What about the MIC [19] of the same compound?
The MIC was 0.12 µg/mL (≈ 0.355 µM).

What about the MIC [20] of the same compound?
The MIC was 0.25 µg/mL (≈ 0.739 µM).

What about the MIC range ([21]; M. abscessus (n = 20)) of the same compound?
Its MIC range is 0.5 to 2 µg/mL.

What about the MIC90 ([21]; Mycobacteroides abscessus) of the same compound?
Its MIC90 is 1 µg/mL (≈ 2.95 µM).

And the MIC [22]?
The MIC was greater than 64 µg/mL.

And the MIC [23]?
Its MIC is greater than 64 µg/mL.

And the MIC [24]?
Its MIC is greater than 64 µg/mL.
